Where a name gives a salt, the structure may show the parent alone. Read-outs that look alike come from different tables or passages of the source. Blank lines part the entries; values can stand above or below the molecule they belong to.
Assays:
[1] = IV and oral rat PK (MAP) studies A, B, C of phosphate prodrugs and parent studies A1, B1, C1; assay type: in vivo, Sprague-Dawley rats; conditions: rats; for Cmax / Vd / half-life / concentration at 24 h / AUC(0-t) / Tmax: male, Sprague-Dawley, rat; for Vd: read-out: Vss i.v.; for concentration at 24 h: oral, read-out: Cp @ 24 hr p.o.; for AUC(0-t): AUC 0-24 h (μM * hr)
Method: The rats for oral dosing studies were fasted overnight. […] The dosing solutions of all three prodrugs for both IV and oral administration were prepared in 100% normal saline at 1 mg/mL (dosing solution concentrations were parent compound equivalent). Plasma samples were collected in EDTA vacutainers over 24 hrs, and analyzed by LC/MS/MS for both the prodrugs and parent molecules. Pharmacokinetic analysis was performed on Kinetica™.
Plasma and tissue samples were collected and stored at −20° C. until analysis. […] Rats were fasted overnight in PO studies. […] In the PO studies, rats (n=3) received PO doses of 5 and 100 mg/kg.
Male Sprague-Dawley rats (300-350 g, Hilltop Lab Animals, Inc., Scottdale, Pa.) with cannulas implanted in the jugular vein and/or bile duct were used. The rats were fasted overnight in the PO pharmacokinetic studies. Blood samples of 0.3 ml were collected from the jugular vein in EDTA-containing microtainer tubes (Becton Dickinson, Franklin Lakes, N.J.), and centrifuged to separate plasma.

monkey hepatocytes = assay: Hydrolysis of prodrug in hepatocytes (monkey); assay type: in vitro ADME
Method: (§1) The in vitro intrinsic clearance of Ibb in hepatocytes (Clint) was calculated as follows: Clint(μL/min/million cells)=Rate/CE where Rate is the rate of metabolism in hepatocytes (pmol/min/million cells), and CE is the concentration of Ibb in the incubation. The in vitro intrinsic clearance of Icb in hepatocytes (Clint) was calculated as follows: Clint(μL/min/million cells)=Rate/CE where Rate is the rate of metabolism in hepatocytes (pmol/min/million cells), and CE is the concentration of Icb in the incubation.

in vitro [2] = conditions: monkey, serum
in vitro [3] = conditions: dog, serum
rat hepatocytes = assay: Hydrolysis of prodrug in hepatocytes (rat); assay type: in vitro ADME
Method: as §1

dog hepatocytes = assay: Hydrolysis of prodrug in hepatocytes (dog); assay type: in vitro ADME
Method: as §1

in vitro [4] = conditions: rat, serum
[5] = Stability of prodrug in Tris-HCl buffer
[6] = Stability of prodrug in fresh EDTA blood (monkey); conditions: Monkey EDTA blood
[7] = Stability (hydrolysis) of prodrug in fresh serum (dog); conditions: Dog Serum
[8] = Stability (hydrolysis) of prodrug in fresh serum (human); conditions: Human Serum
[9] = Stability (hydrolysis) of prodrug in fresh serum (monkey); conditions: Monkey Serum
[10] = plasma, 1 mg/kg, historic, parent IV 1 mpk
[11] = plasma, iv, 1 mg/kg, after IV prodrug dosing equivalent to 1 mpk of parent, analyte = label, read-out: T1/2 i.v. (converted)
[12] = plasma, iv, 1 mg/kg, historic, parent IV 1 mpk, read-out: T1/2 i.v. (converted)
[13] = plasma, 5 mg/kg, after PO prodrug dosing equivalent to 5 mpk of parent, analyte = label
[14] = plasma, 5 mg/kg, historic, after PO dosing of parent 5 mpk
[15] = plasma, po, 5 mg/kg, after PO prodrug dosing equivalent to 5 mpk of parent, analyte = label
[16] = plasma, po, 5 mg/kg, historic, after PO dosing of parent 5 mpk
[17] = plasma, po, 5 mg/kg, after PO prodrug dosing equivalent to 5 mpk of parent
[18] = plasma, po, 5 mg/kg, after PO prodrug dosing equivalent to 5 mpk of parent, read-out: T1/2 p.o. (converted)
[19] = plasma, po, 5 mg/kg, historic, after PO dosing of parent 5 mpk, read-out: T1/2 p.o. (converted)
[20] = parent AUC after prodrug dosing vs after parent dosing

Cmax ([1]; in vivo, 5 mg/kg, historic, after PO dosing of parent 5 mpk): 9500 ± 2800 nM
Vd [1, 10]: 0.49 ± 0.26 L/kg
half-life [1, 11]: 1.5 ± 0.2 h
half-life [1, 12]: 5.9 ± 4.9 h
concentration at 24 h [1, 13]: 7.5 nM
concentration at 24 h [1, 14]: 161 nM
AUC(0-t) [1, 15]: 13.7 ± 2.6 µM·h
AUC(0-t) [1, 16]: 86 ± 33 µM·h
Tmax [1, 17]: 1.1 h
Cmax [1, 15]: 3900 ± 800 nM
half-life [1, 18]: 2.4 ± 0.5 h
Tmax [1, 16]: 4.6 h
half-life [1, 19]: 3.7 ± 0.9 h
SMILES: O=C(C(=O)N1CCN(C(=O)c2ccccc2)CC1)c1c[nH]c2c(-n3ccnn3)ncc(F)c12 [IVb]

hydrolysis in the presence of hepatocytes (monkey hepatocytes): No turnover was observed
half-life at 10 μM (in vitro [2]): 0.5 h
half-life at 10 μM (in vitro [3]): 2.6 h
hydrolysis in the presence of hepatocytes (rat hepatocytes): hydrolyzed
hydrolysis in the presence of hepatocytes (dog hepatocytes): hydrolyzed
half-life at 10 μM (in vitro [4]): 0.7 h
SMILES: COc1cnc(-n2cnc(C)n2)c2c1c(C(=O)C(=O)N1CCN(C(=O)c3ccccc3)CC1)cn2COP(=O)(O)O [Icb, [3-[(4-benzoylpiperazin-1-yl)(oxo)acetyl]-4-methoxy-7-(3-methyl-1H-1,2,4-triazol-1-yl)-1H-pyrrolo[2,3-c]pyridin-1-yl]methyl dihydrogen phosphate, 2-amino-2-(hydroxymethyl)propane-1,3-diol salt (1:1)]

Vd [1, 10]: 0.4 ± 0.09 L/kg
concentration at 24 h [1, 13]: 84.3 nM
concentration at 24 h [1, 14]: 61 nM
AUC(0-t) [1, 15]: 56 ± 7.5 µM·h
AUC(0-t) [1, 16]: 110 ± 25 µM·h
Tmax [1, 17]: 0.8 ± 0.1 h
Cmax [1, 15]: 10200 ± 2100 nM
Cmax [1, 16]: 13400 ± 3600 nM
Tmax [1, 16]: 4 h
SMILES: COc1cnc(-n2cnc(C)n2)c2[nH]cc(C(=O)C(=O)N3CCN(C(=O)c4ccccc4)CC3)c12 [IVc]

SMILES: COc1ncc(OC)c2c(C(=O)C(=O)N3CCN(C(=O)c4ccccc4)CC3)c[nH]c12 [IVa, N-(benzoyl)-N′-[(4,7-dimethoxy-6-azaindol-3-yl)-oxoacetyl]piperazine]
Iab / IVa Formed ([5]; Tris-HCl buffer (0.1 M, pH 7.5), 37°C, 0 min): 0.011 µM
% IVa Formed (of starting concentration of Iab) ([5]; Tris-HCl buffer, 0 min): 0.11%
% IVa Formed (of starting concentration of Iab) ([5]; Tris-HCl buffer, 20 min): 0.081%
Iab / IVa Formed ([5]; Tris-HCl buffer, 20 min): 0.008 µM
% IVa Formed (of starting concentration of Iab) ([5]; Tris-HCl buffer, 40 min): 0.076%
Iab / IVa Formed ([5]; Tris-HCl buffer, 40 min): 0.008 µM
% IVa Formed (of starting concentration of Iab) ([5]; Tris-HCl buffer, 60 min): 0.088%
Iab / IVa Formed ([5]; Tris-HCl buffer, 60 min): 0.009 µM
% IVa Formed (of starting concentration of Iab) ([6]; 0 min): 0.13%
Iab / IVa Formed ([6]; 0 min): 0.011 µM
% IVa Formed (of starting concentration of Iab) ([6]; 20 min): 0.28%
Iab / IVa Formed ([6]; 20 min): 0.024 µM
% IVa Formed (of starting concentration of Iab) ([6]; 40 min): 0.48%
Iab / IVa Formed ([6]; 40 min): 0.041 µM
% IVa Formed (of starting concentration of Iab) ([6]; 60 min): 0.56%
Iab / IVa Formed ([6]; 60 min): 0.048 µM
Iab / IVa Formed ([7]; 37°C, 0 min): 0.066 µM
Iab / IVa Formed ([7]; 15 min): 0.85 µM
Iab / IVa Formed ([7]; 30 min): 1.6 µM
Iab / IVa Formed ([7]; 45 min): 2.5 µM
Iab / IVa Formed ([7]; 60 min): 3.2 µM
Iab / IVa Formed ([7]; 90 min): 4.4 µM
Vd [1, 10]: 1.4 ± 0.4 L/kg
half-life [1, 11]: 2.8 ± 1.5 h
half-life [1, 12]: 4 ± 2.6 h
concentration at 24 h [1, 13]: 35.2 nM
concentration at 24 h [1, 14]: 9.2 nM
AUC(0-t) [1, 15]: 5.9 ± 1 µM·h
AUC(0-t) [1, 16]: 14.9 ± 6.2 µM·h
Tmax [1, 17]: 1.7 h
Cmax [1, 15]: 1400 ± 600 nM
half-life [1, 18]: 3.3 ± 2.2 h
Cmax [1, 16]: 4500 ± 1500 nM
Tmax [1, 16]: 2 h
half-life [1, 19]: 1.9 ± 0.8 h
CL i.v. ([1]; historic, parent IV 1 mpk): 13 ± 4.6 mL/min/kg
AUC0 tot ratio after IV administration* [1, 20]: 0.534
AUCtot ratio after PO administration** [1, 20]: 0.39
Iab / IVa Formed ([8]; 37°C, 0 min): 0.10 µM
Iab / IVa Formed ([8]; 15 min): 0.10 µM
Iab / IVa Formed ([8]; 30 min): 0.15 µM
Iab / IVa Formed ([8]; 45 min): 0.20 µM
Iab / IVa Formed ([8]; 60 min): 0.24 µM
Iab / IVa Formed ([8]; 90 min): 0.32 µM
Iab / IVa Formed ([9]; 37°C, 0 min): 0.20 µM
Iab / IVa Formed ([9]; 15 min): 0.48 µM
Iab / IVa Formed ([9]; 30 min): 0.75 µM
Iab / IVa Formed ([9]; 45 min): 1.2 µM
Iab / IVa Formed ([9]; 60 min): 1.5 µM
Iab / IVa Formed ([9]; 90 min): 2.0 µM

Source: US20150315218A1, “SALTS OF PRODRUGS OF PIPERAZINE AND SUBSTITUTED PIPERIDINE ANTIVIRAL AGENTS” (Bristol-Myers Squibb Company, priority 2004, published 2015)
